Data reported in ChEMBL document CHEMBL1153696, “Hypoglycemic polysaccharides from the tuberous root of Liriope spicata” (2009).
Active and inactive are the calls of the source. The rule behind the calls is not given here.

Key:
Mus musculus [1] = assay: Antidiabetic activity in BALB/c mouse type 2 diabetic model assessed as reduction of fasting blood glucose level at 200 mg/kg, po QD measured after 1 week by glucometry (Rvb=14.89 +/- 1.37 mmol/L); type: functional
Mus musculus [2] = assay: Antidiabetic activity in BALB/c mouse type 2 diabetic model assessed as reduction of fasting blood glucose level at 100 mg/kg, po QD measured after 1 week by glucometry (Rvb=14.89 +/- 1.37 mmol/L); type: functional
Mus musculus [3] = assay: Antidiabetic activity in BALB/c mouse type 2 diabetic model assessed as reduction of fasting blood glucose level at 200 mg/kg, po QD measured after 2 weeks by glucometry (Rvb=14.86 +/- 1.58 mmol/L); type: functional
Mus musculus [4] = assay: Antidiabetic activity in BALB/c mouse type 2 diabetic model assessed as reduction of fasting blood glucose level at 100 mg/kg, po QD measured after 2 weeks by glucometry (Rvb=14.86 +/- 1.58 mmol/L); type: functional
Mus musculus [5] = assay: Antidiabetic activity in BALB/c mouse type 2 diabetic model assessed as reduction of fasting blood glucose level at 200 mg/kg, po QD measured after 3 weeks by glucometry (Rvb=14.89 +/- 1.42 mmol/L); type: functional
Mus musculus [6] = assay: Antidiabetic activity in BALB/c mouse type 2 diabetic model assessed as reduction of fasting blood glucose level at 100 mg/kg, po QD measured after 3 weeks by glucometry (Rvb=14.89 +/- 1.42 mmol/L); type: functional
Mus musculus [7] = assay: Antidiabetic activity in BALB/c mouse type 2 diabetic model assessed as reduction of fasting blood glucose level at 200 mg/kg, po QD measured after 4 weeks by glucometry (Rvb=15.03 +/- 1.47 mmol/L); type: functional
Mus musculus [8] = assay: Antidiabetic activity in BALB/c mouse type 2 diabetic model assessed as reduction of fasting blood glucose level at 100 mg/kg, po QD measured after 4 weeks by glucometry (Rvb=15.03 +/- 1.47 mmol/L); type: functional
Mus musculus [9] = assay: Hypoglycemic effect in type 2 diabetic BALB/c mouse model assessed as reduction in blood glucose excursion at 100 to 200 mg/kg, po pretreated 60 mins before glucose challenge measured up to 3 hrs by one-touch glucometer relative to diabetic control; type: functional, organism-based
Mus musculus [10] = assay: Hypoglycemic effect in type 2 diabetic BALB/c mouse model assessed as reduction in blood glucose excursion at 2 mg/kg, po pretreated 60 mins before glucose challenge measured up to 3 hrs by one-touch glucometer relative to diabetic control; type: functional, organism-based; design: dose 2 mg/kg
Mus musculus [11] = assay: Antidiabetic activity in BALB/c mouse type 2 diabetic model assessed as reduction of fasting blood glucose level at 2 mg/kg, po QD measured after 1 week by glucometry (Rvb=14.89 +/- 1.37 mmol/L); type: functional
Mus musculus [12] = assay: Antidiabetic activity in BALB/c mouse type 2 diabetic model assessed as reduction of fasting blood glucose level at 2 mg/kg, po QD measured after 2 weeks by glucometry (Rvb=14.86 +/- 1.58 mmol/L); type: functional
Mus musculus [13] = assay: Antidiabetic activity in BALB/c mouse type 2 diabetic model assessed as reduction of fasting blood glucose level at 2 mg/kg, po QD measured after 3 weeks by glucometry (Rvb=14.89 +/- 1.42 mmol/L); type: functional
Mus musculus [14] = assay: Antidiabetic activity in BALB/c mouse type 2 diabetic model assessed as reduction of fasting blood glucose level at 2 mg/kg, po QD measured after 4 weeks by glucometry (Rvb=15.03 +/- 1.47 mmol/L); type: functional

Row | Compound | Activity (Mus musculus [1]) | Activity (Mus musculus [2]) | Activity (Mus musculus [3]) | Activity (Mus musculus [4]) | Activity (Mus musculus [5]) | Activity (Mus musculus [6]) | Activity (Mus musculus [7]) | Activity (Mus musculus [8]) | Activity (Mus musculus [9]) | Activity (Mus musculus [10]) | Activity (Mus musculus [11]) | Activity (Mus musculus [12]) | Activity (Mus musculus [13]) | Activity (Mus musculus [14])
1 | OC[C@H]1O[C@@](CO)(OC[C@H]2O[C@@](CO[C@]3(CO[C@]4(CO)O[C@H](CO)[C@@H](O)[C@@H]4O)O[C@H](CO)[C@@H](O)[C@@H]3O)(OC[C@@]3(OC[C@@]4(OC[C@@]5(OC[C@@]6(OC[C@@]7(OC[C@@]8(OC[C@@]9(OC[C@@]%10(OC[C@@]%11(OC[C@@]%12(OC[C@@]%13(OC[C@@]%14(OC[C@@]%15(OC[C@@]%16(OC[C@@]%17(OC[C@@]%18(O[C@@H]%19O[C@H](CO)[C@@H](O)[C@H](O)[C@H]%19O)O[C@H](CO)[C@@H](O)[C@@H]%18O)O[C@H](CO[C@]%18(CO)O[C@H](CO)[C@@H](O)[C@@H]%18O)[C@@H](O)[C@@H]%17O)O[C@H](CO)[C@@H](O)[C@@H]%16O)O[C@H](CO)[C@@H](O)[C@@H]%15O)O[C@H](CO[C@]%15(CO)O[C@H](CO)[C@@H](O)[C@@H]%15O)[C@@H](O)[C@@H]%14O)O[C@H](CO)[C@@H](O)[C@@H]%13O)O[C@H](CO)[C@@H](O)[C@@H]%12O)O[C@H](CO[C@]%12(CO)O[C@H](CO)[C@@H](O)[C@@H]%12O)[C@@H](O)[C@@H]%11O)O[C@H](CO)[C@@H](O)[C@@H]%10O)O[C@H](CO)[C@@H](O)[C@@H]9O)O[C@H](CO[C@]9(CO)O[C@H](CO)[C@@H](O)[C@@H]9O)[C@@H](O)[C@@H]8O)O[C@H](CO)[C@@H](O)[C@@H]7O)O[C@H](CO)[C@@H](O)[C@@H]6O)O[C@H](CO[C@]6(CO)O[C@H](CO)[C@@H](O)[C@@H]6O)[C@@H](O)[C@@H]5O)O[C@H](CO)[C@@H](O)[C@@H]4O)O[C@H](CO)[C@@H](O)[C@@H]3O)[C@@H](O)[C@@H]2O)[C@@H](O)[C@@H]1O | 8.65 mmol/L | 10.04 mmol/L | 6.16 mmol/L | 7.05 mmol/L | 5.14 mmol/L | 4.7 mmol/L | 4.78 mmol/L | 4.63 mmol/L | Active | Active |  |  |  | 
2 | CN(CCOc1ccc(CC2SC(=O)NC2=O)cc1)c1ccccn1 (stereo unspecified) [ROSIGLITAZONE] |  |  |  |  |  |  |  |  | Active | Active | 9.58 mmol/L | 5.54 mmol/L | 5.04 mmol/L | 4.94 mmol/L
3 | OC[C@H]1OC(CO)(OC[C@H]2O[C@@](CO[C@]3(CO[C@]4(CO[C@]5(CO[C@]6(CO[C@]7(CO)O[C@H](CO)[C@@H](O)[C@@H]7O)O[C@H](CO[C@]7(CO)O[C@H](CO)[C@@H](O)[C@@H]7O)[C@@H](O)[C@@H]6O)O[C@H](CO)[C@@H](O)[C@@H]5O)O[C@H](CO[C@]5(CO)O[C@H](CO)[C@@H](O)[C@@H]5O)[C@@H](O)[C@@H]4O)O[C@H](CO)[C@@H](O)[C@@H]3O)(OC[C@@]3(OC[C@@]4(OC[C@@]5(OC[C@@]6(OC[C@@]7(OC[C@@]8(OC[C@@]9(O[C@@H]%10O[C@H](CO)[C@@H](O)[C@H](O)[C@H]%10O)O[C@H](CO)[C@@H](O)[C@@H]9O)O[C@H](CO[C@]9(CO)O[C@H](CO)[C@@H](O)[C@@H]9O)[C@@H](O)[C@@H]8O)O[C@H](CO)[C@@H](O)[C@@H]7O)O[C@H](CO[C@]7(CO)O[C@H](CO)[C@@H](O)[C@@H]7O)[C@@H](O)[C@@H]6O)O[C@H](CO)[C@@H](O)[C@@H]5O)O[C@H](CO[C@]5(CO)O[C@H](CO)[C@@H](O)[C@@H]5O)[C@@H](O)[C@@H]4O)O[C@H](CO)[C@@H](O)[C@@H]3O)[C@@H](O)[C@@H]2O)[C@@H](O)[C@@H]1O (stereo partly specified) | 9.35 mmol/L | 9.71 mmol/L | 7.25 mmol/L | 7.96 mmol/L | 5.44 mmol/L | 4.83 mmol/L | 4.83 mmol/L | 5.13 mmol/L | Active | Active |  |  |  | 
